Reference: US9028845B2, “Chimeric immunomodulatory compounds and methods of using the same-IV” (Dynavax Technologies Corporation, priority 2001, dated 2015)

What was measured:
CD19+ B cells = test: Human B cell proliferation assay (3H-thymidine incorporation); conditions: 2 μg/ml
human PBMCs = test: Human PBMC cytokine response assay (IFN-γ and IFN-α in cell-free medium by ELISA), with or without cPLGA; format: cell-based;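 for IFN-α (pg/ml) mean: 20 µg/mL compound for 24 hours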;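 for IFN-γ (pg/ml) mean: 20 µg/mL compound for 24 hours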
PBMCs = test: Human PBMC proliferation assay (3H-thymidine incorporation); format: cell-based; conditions: Experiment A; for mean cpm: 2 μg/ml
[1] = B cells, Donor 146, Experiment A
[2] = B cells, Donor 147, Experiment A
[3] = Table 24, mean of donors 28234-28237
[4] = Table 25, mean of donors 28250-28253
[5] = donor 28066, 20 ug/ml, 24 h, + PLGA = premixed with 100 μg/ml cPLGA
[6] = donor 28067, 20 ug/ml, 24 h, + PLGA = premixed with 100 μg/ml cPLGA
[7] = donor 28068, 20 ug/ml, 24 h, + PLGA = premixed with 100 μg/ml cPLGA
[8] = mean of donors 28065-28068, 20 ug/ml, 24 h, + PLGA = premixed with 100 μg/ml cPLGA
[9] = mean of donors 28185-28188, Table 15

What does the source list for “5′-TCGTCGA-3′-HEG-5′-TCGTCGA-3′-HEG-5′-TCGTCGA-3′ [Compound C-21]”?
B cell proliferation, in words (CD19+ B cells; 48 h plus 8 h 3H-thymidine pulse): cause B cells to proliferate; cpm1 (CD19+ B cells; [1]): 28467 cpm; cpm2 (CD19+ B cells; [1]): 16074 cpm; cpm3 (CD19+ B cells; [1]): 19258 cpm; mean cpm (CD19+ B cells; B cells, Donor 146 mean, Experiment A): 21266 cpm; cpm1 (CD19+ B cells; [2]): 17604 cpm; cpm2 (CD19+ B cells; [2]): 18851 cpm; cpm3 (CD19+ B cells; [2]): 19887 cpm; mean cpm (CD19+ B cells; B cells, Donor 147 mean, Experiment A): 18781 cpm; mean of both (CD19+ B cells; B cells, mean of Donors 146 and 147, Experiment A): 20024 cpm; IFN-α (human PBMCs; Table 9, donor 28089): 56 pg/mL; IFN-γ (human PBMCs; Table 9, donor 28089): 61 pg/mL; IFN-α (human PBMCs; Table 9, donor 28090): 157 pg/mL; IFN-γ (human PBMCs; Table 9, donor 28090): 68 pg/mL; IFN-α (human PBMCs; Table 9, donor 28098): 286 pg/mL; IFN-γ (human PBMCs; Table 9, donor 28098): 218 pg/mL; IFN-α (human PBMCs; Table 9, donor 28099): 466 pg/mL; IFN-γ (human PBMCs; Table 9, donor 28099): 124 pg/mL; IFN-α mean (human PBMCs; Table 9, mean of donors): 241 pg/mL; IFN-γ mean (human PBMCs; Table 9, mean of donors): 118 pg/mL; IFN-α (human PBMCs; Table 10, donor 28042): 57 pg/mL; IFN-γ (human PBMCs; Table 10, donor 28042): 790 pg/mL; IFN-α (human PBMCs; Table 10, donor 28043): 72 pg/mL; IFN-γ (human PBMCs; Table 10, donor 28043): 1519 pg/mL; IFN-α (human PBMCs; Table 10, donor 28044): 79 pg/mL; IFN-γ (human PBMCs; Table 10, donor 28044): 1198 pg/mL; IFN-α (human PBMCs; Table 10, donor 28045): 15 pg/mL; IFN-γ (human PBMCs; Table 10, donor 28045): 177 pg/mL; IFN-α mean (human PBMCs; Table 10, mean of donors): 56 pg/mL; IFN-γ mean (human PBMCs; Table 10, mean of donors): 921 pg/mL; IFN-α (human PBMCs; Table 11, donor 28042): 146 pg/mL; IFN-γ (human PBMCs; Table 11, donor 28042): 572 pg/mL; IFN-α (human PBMCs; Table 11, donor 28043): 94 pg/mL; IFN-γ (human PBMCs; Table 11, donor 28043): 460 pg/mL; IFN-α (human PBMCs; Table 11, donor 28044): 191 pg/mL; IFN-γ (human PBMCs; Table 11, donor 28044): 4000 pg/mL; IFN-α (human PBMCs; Table 11, donor 28045): 349 pg/mL; IFN-γ (human PBMCs; Table 11, donor 28045): 1644 pg/mL; IFN-α mean (human PBMCs; Table 11, mean of donors): 195 pg/mL; IFN-γ mean (human PBMCs; Table 11, mean of donors): 1669 pg/mL; IFN-α (human PBMCs; Table 24, donor 28234): 16 pg/mL; IFN-γ (human PBMCs; Table 24, donor 28234): 4 pg/mL; IFN-α (human PBMCs; Table 24, donor 28235): 16 pg/mL; IFN-γ (human PBMCs; Table 24, donor 28235): 107 pg/mL; IFN-α (human PBMCs; Table 24, donor 28236): 73 pg/mL; IFN-γ (human PBMCs; Table 24, donor 28236): 308 pg/mL; IFN-α (human PBMCs; Table 24, donor 28237): 678 pg/mL; IFN-γ (human PBMCs; Table 24, donor 28237): 1645 pg/mL; IFN-α mean (human PBMCs; [3]): 196 pg/mL; IFN-γ mean (human PBMCs; [3]): 516 pg/mL; IFN-a (human PBMCs; Table 25, donor 28250): 31 pg/mL; IFN-g (human PBMCs; Table 25, donor 28250, polynucleotides/spacers at amounts equivalent to the CIC, spacers alone 9 uM): 122 pg/mL; IFN-a (human PBMCs; Table 25, donor 28251): 69 pg/mL; IFN-g (human PBMCs; Table 25, donor 28251): 51 pg/mL; IFN-a (human PBMCs; Table 25, donor 28252): 41 pg/mL; IFN-g (human PBMCs; Table 25, donor 28252): 155 pg/mL; IFN-a (human PBMCs; Table 25, donor 28253): 264 pg/mL; IFN-g (human PBMCs; Table 25, donor 28253): 203 pg/mL; IFN-a mean (human PBMCs; [4]): 101 pg/mL; IFN-g mean (human PBMCs; [4]): 133 pg/mL; IFN-γ (pg/ml) 28065 (human PBMCs; donor 28065 (high background), 20 ug/ml, 24 h, + PLGA = premixed with 100 μg/ml cPLGA, 1000 = outside assay limits): 653 pg/mL; IFN-α (pg/ml) 28065 (human PBMCs; donor 28065, 20 ug/ml, 24 h, + PLGA = premixed with 100 μg/ml cPLGA): 227 pg/mL; IFN-α (pg/ml) 28066 (human PBMCs; [5]): 24 pg/mL; IFN-γ (pg/ml) 28066 (human PBMCs; [5]): 16 pg/mL; IFN-α (pg/ml) 28067 (human PBMCs; [6]): 183 pg/mL; IFN-γ (pg/ml) 28067 (human PBMCs; [6]): 24 pg/mL; IFN-α (pg/ml) 28068 (human PBMCs; [7]): 769 pg/mL; IFN-γ (pg/ml) 28068 (human PBMCs; [7]): 960 pg/mL; IFN-a (human PBMCs; donor 28185, Table 15): 443 pg/mL; IFN-g (human PBMCs; donor 28185, Table 15): 244 pg/mL; IFN-a (human PBMCs; donor 28186, Table 15): 64 pg/mL; IFN-g (human PBMCs; donor 28186, Table 15): 37 pg/mL; IFN-a (human PBMCs; donor 28187, Table 15): 1 pg/mL; IFN-g (human PBMCs; donor 28187, Table 15): 125 pg/mL; IFN-a (human PBMCs; donor 28188, Table 15): 4 pg/mL; IFN-g (human PBMCs; donor 28188, Table 15): 7 pg/mL; IFN-α (pg/ml) mean (human PBMCs; [8]): 300 pg/mL; IFN-γ (pg/ml) mean (human PBMCs; [8]): 413 pg/mL; IFN-a (pg/ml) mean (human PBMCs; [9]): 128 pg/mL; IFN-g (pg/ml) mean (human PBMCs; [9]): 103 pg/mL; IFN-a (pg/ml) ×2 (human PBMCs; mean ×2, Table 15): 256 pg/mL; IFN-g (pg/ml) ×4 (human PBMCs; mean ×4, Table 15): 413 pg/mL; immunomodulatory activity (IFN-γ / IFN-α secretion), in words (human PBMCs; used alone (no cPLGA)): more active than other CG-containing CICs; cpm1 (PBMCs; Donor 146, 2 μg/ml): 30338 cpm; cpm2 (PBMCs; Donor 146, 2 μg/ml): 22685 cpm; cpm3 (PBMCs; Donor 146, 2 μg/ml): 22383 cpm; mean cpm (PBMCs; Donor 146 mean): 25135 cpm; cpm1 (PBMCs; Donor 147, 2 μg/ml): 28819 cpm; cpm2 (PBMCs; Donor 147, 2 μg/ml): 530 cpm; cpm3 (PBMCs; Donor 147, 2 μg/ml): 37088 cpm; mean cpm (PBMCs; Donor 147 mean): 22146 cpm; mean of both (PBMCs; mean of Donors 146 and 147, 2 μg/ml): 23641 cpm
